The source made the active and inactive calls.
Legend:
Type in all cases: functional, organism-based
[1] = tested on: Bacillus subtilis; assay: Antimicrobial activity against Bacillus subtilis at 40 ug after 24 hrs by agar diffusion method
[2] = tested on: Candida albicans; assay: Antimicrobial activity against Candida albicans at 40 ug after 24 hrs by agar diffusion method
[3] = tested on: Staphylococcus aureus; assay: Antimicrobial activity against Staphylococcus aureus at 40 ug after 24 hrs by agar diffusion method
[4] = tested on: Chlorella sorokiniana; assay: Antimicrobial activity against Chlorella sorokiniana at 40 ug after 24 hrs by agar diffusion method
[5] = tested on: Escherichia coli; assay: Antimicrobial activity against Escherichia coli at 40 ug after 24 hrs by agar diffusion method
[6] = tested on: Desmodesmus subspicatus; assay: Antimicrobial activity against Scenedesmus subspicatus at 40 ug after 24 hrs by agar diffusion method
[7] = tested on: Chlorella vulgaris; assay: Antimicrobial activity against Chlorella vulgaris at 40 ug after 24 hrs by agar diffusion method
[8] = tested on: Streptomyces viridochromogenes; assay: Antimicrobial activity against Streptomyces viridochromogenes at 40 ug after 24 hrs by agar diffusion method

Measured: Activity

CC(=O)O[C@H](C)[C@@H]1c2cc3cccc(O[C@@H]4O[C@H](C(=O)O)[C@@H](O)[C@H](O)[C@H]4O)c3c(O)c2C(=O)C[C@]1(C)O
inactive: all assays above
